Measurements reported in paper PMC8213057, “Targeting ALK2: An Open Science Approach to Developing Therapeutics for the Treatment of Diffuse Intrinsic Pontine Glioma” (Journal of Medicinal Chemistry, 2020).

Columns and labels:
c-MET = c-MET (Homo sapiens, UniProt P08581); settings: 1 μM; Run 1, Run 2
CK1a1 = CK1a1 (Homo sapiens, UniProt P48729); settings: 1 μM; Run 1, Run 2
EGFR = EGFR (Homo sapiens, UniProt P00533); settings: 1 μM; Run 1, Run 2
ERK5/MAPK7 = ERK5/MAPK7 (Homo sapiens, UniProt Q13164); settings: 1 μM; Run 1, Run 2
FGFR3 = FGFR3 (Homo sapiens, UniProt P22607); settings: 1 μM; Run 1, Run 2
MSSK1/STK23 = MSSK1/STK23 (Homo sapiens, UniProt Q9UPE1); settings: 1 μM; Run 1, Run 2
PAK3 = PAK3 (Homo sapiens, UniProt O75914); settings: 1 μM; Run 1, Run 2
SGK1 = target: T1, SGK1 (Homo sapiens, UniProt O00141); settings: 1 μM; Run 1, Run 2
T1 sequence (O00141 1-431): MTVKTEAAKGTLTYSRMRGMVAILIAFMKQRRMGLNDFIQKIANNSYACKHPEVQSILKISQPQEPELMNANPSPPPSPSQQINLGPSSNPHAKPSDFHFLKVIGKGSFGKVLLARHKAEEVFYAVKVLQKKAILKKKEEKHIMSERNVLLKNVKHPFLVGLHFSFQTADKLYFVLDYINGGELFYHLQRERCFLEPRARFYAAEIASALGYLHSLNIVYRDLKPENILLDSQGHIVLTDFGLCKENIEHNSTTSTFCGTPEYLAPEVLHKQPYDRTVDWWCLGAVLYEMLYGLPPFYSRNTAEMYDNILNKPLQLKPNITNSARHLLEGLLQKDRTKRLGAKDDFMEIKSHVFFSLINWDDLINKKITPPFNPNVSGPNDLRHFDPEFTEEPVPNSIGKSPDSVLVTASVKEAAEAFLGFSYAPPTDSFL

SRPK2 = SRPK2 (Homo sapiens, UniProt P78362); settings: 1 μM; Run 1, Run 2
DYRK1/DYRK1A = DYRK1/DYRK1A (Homo sapiens, UniProt Q13627); assay: biochemical; settings: read-out: % enzyme activity, 1 μM; Run 1, Run 2
GSK3a = GSK3a (Homo sapiens, UniProt P49840); assay: biochemical; settings: read-out: % enzyme activity, 1 μM; Run 1, Run 2
MASTL = target: T2, MASTL (Homo sapiens, UniProt Q96GX5); assay: biochemical; settings: read-out: % enzyme activity, 1 μM; Run 1, Run 2
T2 sequence (Q96GX5 1-879): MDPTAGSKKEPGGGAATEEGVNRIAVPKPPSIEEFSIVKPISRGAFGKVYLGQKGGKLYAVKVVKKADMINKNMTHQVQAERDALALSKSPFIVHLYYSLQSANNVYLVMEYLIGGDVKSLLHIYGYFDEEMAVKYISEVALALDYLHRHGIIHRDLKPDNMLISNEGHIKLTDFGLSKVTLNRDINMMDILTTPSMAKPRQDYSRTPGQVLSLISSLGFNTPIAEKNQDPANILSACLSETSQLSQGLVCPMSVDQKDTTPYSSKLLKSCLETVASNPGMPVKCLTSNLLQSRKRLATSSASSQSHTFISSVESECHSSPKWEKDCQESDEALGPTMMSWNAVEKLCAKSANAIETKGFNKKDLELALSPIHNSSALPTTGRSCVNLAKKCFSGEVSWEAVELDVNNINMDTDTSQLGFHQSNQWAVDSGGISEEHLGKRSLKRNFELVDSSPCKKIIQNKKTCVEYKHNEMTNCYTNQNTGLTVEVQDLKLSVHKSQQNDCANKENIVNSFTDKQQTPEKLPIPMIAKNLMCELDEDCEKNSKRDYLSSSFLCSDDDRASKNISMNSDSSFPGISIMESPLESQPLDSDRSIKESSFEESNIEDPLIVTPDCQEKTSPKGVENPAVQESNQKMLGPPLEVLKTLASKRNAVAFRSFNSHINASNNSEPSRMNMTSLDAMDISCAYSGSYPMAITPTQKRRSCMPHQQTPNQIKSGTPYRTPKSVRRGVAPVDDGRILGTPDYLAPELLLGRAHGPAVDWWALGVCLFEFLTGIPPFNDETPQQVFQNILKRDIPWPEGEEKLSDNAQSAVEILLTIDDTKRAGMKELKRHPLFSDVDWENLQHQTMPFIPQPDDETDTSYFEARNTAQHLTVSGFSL

MEKK1 = MEKK1 (Homo sapiens, UniProt Q13233); assay: biochemical; settings: read-out: % enzyme activity, 1 μM; Run 1, Run 2
MLK3/MAP3K11 = MLK3/MAP3K11 (Homo sapiens, UniProt Q16584); assay: biochemical; settings: read-out: % enzyme activity, 1 μM; Run 1, Run 2
PASK = PASK (Homo sapiens, UniProt Q96RG2); assay: biochemical; settings: read-out: % enzyme activity, 1 μM; Run 1, Run 2
PYK2 = PYK2 (Homo sapiens, UniProt Q14289); assay: biochemical; settings: read-out: % enzyme activity, 1 μM; Run 1, Run 2

CK1a1, sequence (P48729 whole entry): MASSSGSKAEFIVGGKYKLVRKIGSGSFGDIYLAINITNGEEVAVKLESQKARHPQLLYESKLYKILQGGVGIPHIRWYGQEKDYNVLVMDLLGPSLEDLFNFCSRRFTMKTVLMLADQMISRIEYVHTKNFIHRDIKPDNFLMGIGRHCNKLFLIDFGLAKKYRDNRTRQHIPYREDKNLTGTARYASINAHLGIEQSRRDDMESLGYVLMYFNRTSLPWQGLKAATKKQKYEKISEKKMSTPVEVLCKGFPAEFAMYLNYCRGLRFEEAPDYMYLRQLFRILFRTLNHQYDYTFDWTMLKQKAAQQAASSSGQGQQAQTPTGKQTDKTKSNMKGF
SRPK2, sequence (P78362 whole entry): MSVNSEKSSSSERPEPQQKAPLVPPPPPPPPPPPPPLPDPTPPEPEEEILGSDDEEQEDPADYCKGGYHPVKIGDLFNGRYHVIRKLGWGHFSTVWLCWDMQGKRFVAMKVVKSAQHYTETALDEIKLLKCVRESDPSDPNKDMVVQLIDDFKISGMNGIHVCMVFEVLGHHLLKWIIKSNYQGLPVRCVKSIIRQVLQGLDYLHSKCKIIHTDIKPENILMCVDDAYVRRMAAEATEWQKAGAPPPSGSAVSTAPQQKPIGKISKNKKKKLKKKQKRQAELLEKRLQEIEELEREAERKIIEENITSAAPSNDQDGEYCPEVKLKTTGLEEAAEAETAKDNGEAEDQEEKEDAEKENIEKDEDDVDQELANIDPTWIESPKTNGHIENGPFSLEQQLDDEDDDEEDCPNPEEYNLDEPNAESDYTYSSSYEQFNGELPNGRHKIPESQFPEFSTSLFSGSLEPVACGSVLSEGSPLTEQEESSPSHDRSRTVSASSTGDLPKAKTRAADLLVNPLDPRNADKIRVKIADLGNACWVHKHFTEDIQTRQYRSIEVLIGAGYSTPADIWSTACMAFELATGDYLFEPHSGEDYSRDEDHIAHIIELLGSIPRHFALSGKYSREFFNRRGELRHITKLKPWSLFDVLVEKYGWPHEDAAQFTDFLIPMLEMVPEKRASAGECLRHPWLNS
FGFR3, sequence (P22607 23-806): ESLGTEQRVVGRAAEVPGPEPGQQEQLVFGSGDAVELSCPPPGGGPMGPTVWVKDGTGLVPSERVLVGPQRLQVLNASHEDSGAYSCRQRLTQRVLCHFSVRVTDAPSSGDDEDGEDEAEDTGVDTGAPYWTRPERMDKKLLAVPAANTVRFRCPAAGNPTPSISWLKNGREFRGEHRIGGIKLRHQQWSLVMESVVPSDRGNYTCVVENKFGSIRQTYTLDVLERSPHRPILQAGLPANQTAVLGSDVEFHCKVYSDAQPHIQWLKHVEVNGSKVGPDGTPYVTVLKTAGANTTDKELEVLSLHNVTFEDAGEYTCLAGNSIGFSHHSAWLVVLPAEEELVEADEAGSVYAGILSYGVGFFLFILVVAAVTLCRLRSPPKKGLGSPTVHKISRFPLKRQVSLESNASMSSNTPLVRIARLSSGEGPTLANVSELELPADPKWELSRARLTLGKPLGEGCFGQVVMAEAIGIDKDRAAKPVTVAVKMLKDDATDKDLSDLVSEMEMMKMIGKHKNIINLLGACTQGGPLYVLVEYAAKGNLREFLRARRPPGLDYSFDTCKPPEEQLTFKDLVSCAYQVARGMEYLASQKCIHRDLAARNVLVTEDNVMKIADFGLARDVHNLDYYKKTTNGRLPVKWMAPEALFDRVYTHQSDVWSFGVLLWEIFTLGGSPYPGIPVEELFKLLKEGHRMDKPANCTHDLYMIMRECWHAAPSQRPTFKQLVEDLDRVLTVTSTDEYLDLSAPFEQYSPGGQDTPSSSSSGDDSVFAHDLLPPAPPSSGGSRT
MEKK1, sequence (Q13233 whole entry): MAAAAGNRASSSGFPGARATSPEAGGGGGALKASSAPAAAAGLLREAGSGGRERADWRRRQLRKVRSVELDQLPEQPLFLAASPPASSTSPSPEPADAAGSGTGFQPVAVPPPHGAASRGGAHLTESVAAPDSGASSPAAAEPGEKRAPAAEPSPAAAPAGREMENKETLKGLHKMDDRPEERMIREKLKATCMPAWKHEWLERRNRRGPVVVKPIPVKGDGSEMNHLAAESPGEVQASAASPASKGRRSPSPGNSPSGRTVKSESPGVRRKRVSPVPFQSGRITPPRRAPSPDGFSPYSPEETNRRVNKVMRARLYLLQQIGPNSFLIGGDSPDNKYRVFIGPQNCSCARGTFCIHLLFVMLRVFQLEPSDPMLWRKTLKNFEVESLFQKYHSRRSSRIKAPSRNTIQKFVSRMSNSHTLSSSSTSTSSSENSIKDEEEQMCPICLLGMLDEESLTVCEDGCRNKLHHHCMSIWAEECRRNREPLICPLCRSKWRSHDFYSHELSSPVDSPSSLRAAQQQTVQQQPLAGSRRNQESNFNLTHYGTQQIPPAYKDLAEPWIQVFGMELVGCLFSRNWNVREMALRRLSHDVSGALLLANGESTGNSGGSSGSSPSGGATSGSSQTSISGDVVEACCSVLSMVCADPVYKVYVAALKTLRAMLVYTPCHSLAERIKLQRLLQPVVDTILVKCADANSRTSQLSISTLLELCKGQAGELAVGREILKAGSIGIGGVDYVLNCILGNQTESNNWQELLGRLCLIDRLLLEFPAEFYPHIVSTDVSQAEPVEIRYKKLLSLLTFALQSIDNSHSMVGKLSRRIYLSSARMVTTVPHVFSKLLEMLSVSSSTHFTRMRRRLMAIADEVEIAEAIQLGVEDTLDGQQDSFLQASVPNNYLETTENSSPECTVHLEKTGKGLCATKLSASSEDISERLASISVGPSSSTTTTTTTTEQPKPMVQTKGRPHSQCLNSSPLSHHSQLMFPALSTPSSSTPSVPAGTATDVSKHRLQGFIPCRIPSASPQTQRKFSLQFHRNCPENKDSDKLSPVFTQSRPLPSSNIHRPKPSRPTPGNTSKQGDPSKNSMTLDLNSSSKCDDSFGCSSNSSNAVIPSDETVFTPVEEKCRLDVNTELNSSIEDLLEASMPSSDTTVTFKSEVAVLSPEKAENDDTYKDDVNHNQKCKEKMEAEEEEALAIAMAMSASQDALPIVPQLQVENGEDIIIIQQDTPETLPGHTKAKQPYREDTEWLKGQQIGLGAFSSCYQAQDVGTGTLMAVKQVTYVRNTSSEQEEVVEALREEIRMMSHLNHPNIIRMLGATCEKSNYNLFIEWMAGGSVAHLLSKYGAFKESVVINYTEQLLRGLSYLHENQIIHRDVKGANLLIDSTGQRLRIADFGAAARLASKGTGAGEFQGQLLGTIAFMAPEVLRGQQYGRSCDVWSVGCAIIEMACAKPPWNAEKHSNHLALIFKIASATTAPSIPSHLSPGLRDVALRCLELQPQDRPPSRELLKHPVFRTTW
c-MET, sequence (P08581 25-1390): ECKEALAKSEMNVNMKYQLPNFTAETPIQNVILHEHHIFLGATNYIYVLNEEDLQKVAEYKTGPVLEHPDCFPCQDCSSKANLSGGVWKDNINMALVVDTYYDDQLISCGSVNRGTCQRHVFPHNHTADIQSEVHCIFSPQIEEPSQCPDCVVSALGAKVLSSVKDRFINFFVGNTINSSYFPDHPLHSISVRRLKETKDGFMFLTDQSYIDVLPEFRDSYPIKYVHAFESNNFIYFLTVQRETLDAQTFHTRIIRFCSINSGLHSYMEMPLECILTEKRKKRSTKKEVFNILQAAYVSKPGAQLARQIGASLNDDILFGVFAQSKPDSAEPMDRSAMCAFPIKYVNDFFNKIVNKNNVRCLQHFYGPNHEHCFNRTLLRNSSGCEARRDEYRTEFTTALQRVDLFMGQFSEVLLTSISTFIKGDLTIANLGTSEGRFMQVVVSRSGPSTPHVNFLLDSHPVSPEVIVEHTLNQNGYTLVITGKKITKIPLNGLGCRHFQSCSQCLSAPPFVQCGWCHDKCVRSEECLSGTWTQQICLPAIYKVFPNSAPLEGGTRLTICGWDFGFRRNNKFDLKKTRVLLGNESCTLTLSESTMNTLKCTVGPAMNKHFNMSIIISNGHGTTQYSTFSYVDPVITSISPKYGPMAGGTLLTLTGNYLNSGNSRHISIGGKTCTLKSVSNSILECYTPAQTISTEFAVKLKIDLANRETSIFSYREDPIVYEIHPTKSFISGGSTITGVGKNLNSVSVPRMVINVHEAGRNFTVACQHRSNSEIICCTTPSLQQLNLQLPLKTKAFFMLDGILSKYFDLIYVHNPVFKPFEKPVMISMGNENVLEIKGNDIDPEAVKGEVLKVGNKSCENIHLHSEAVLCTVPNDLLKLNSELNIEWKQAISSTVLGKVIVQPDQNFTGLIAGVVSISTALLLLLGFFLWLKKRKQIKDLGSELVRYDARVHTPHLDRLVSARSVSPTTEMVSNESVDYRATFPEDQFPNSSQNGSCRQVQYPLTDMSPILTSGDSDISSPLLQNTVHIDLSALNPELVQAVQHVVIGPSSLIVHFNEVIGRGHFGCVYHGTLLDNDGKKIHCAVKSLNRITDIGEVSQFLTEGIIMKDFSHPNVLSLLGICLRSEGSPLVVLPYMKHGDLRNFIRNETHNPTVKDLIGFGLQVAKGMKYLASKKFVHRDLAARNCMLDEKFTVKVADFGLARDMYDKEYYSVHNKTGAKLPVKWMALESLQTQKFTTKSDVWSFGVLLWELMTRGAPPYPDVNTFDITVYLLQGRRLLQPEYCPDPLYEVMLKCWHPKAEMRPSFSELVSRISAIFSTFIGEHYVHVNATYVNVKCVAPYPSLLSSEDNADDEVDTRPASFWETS

| SMILES | % enzyme activity (c-MET) | % enzyme activity (CK1a1) | % enzyme activity (EGFR) | % enzyme activity (ERK5/MAPK7) | % enzyme activity (FGFR3) | % enzyme activity (MSSK1/STK23) | % enzyme activity (PAK3) | % enzyme activity (SGK1) | % enzyme activity (SRPK2) | remaining activity at 1 µM (DYRK1/DYRK1A) | remaining activity at 1 µM (GSK3a) | remaining activity at 1 µM (MASTL) | remaining activity at 1 µM (MEKK1) | remaining activity at 1 µM (MLK3/MAP3K11) | remaining activity at 1 µM (PASK) | remaining activity at 1 µM (PYK2) |
| --- | --- | --- | --- | --- | --- | --- | --- | --- | --- | --- | --- | --- | --- | --- | --- | --- |
| COc1cc(-c2cncc(-c3ccc(N4CCN(C)CC4)cc3)c2C)cc(F)c1C(N)=O [Compound 26a, 2-Fluoro-6-methoxy-4-(4-methyl-5-(4-(4-methylpiperazin-1-yl)phenyl)pyridin-3-yl)benzamide] | 98.28% | 91.31% | 95.66% | 92.77% | 100.98% | 98.71% | 87.14% | 93.48% | 94.13% | 43.3% | 102% | 99.3% | 94.3% | 99.4% | 94% | 85.9% |
| COc1cc(-c2cncc(-c3ccc(N4C[C@@H](C)N(C)[C@@H](C)C4)cc3)c2C)cc(F)c1C(N)=O [Compound 26c, 2-Fluoro-6-methoxy-4-(4-methyl-5-(4-((3R,5S)-3,4,5-trimethylpiperazin-1-yl)phenyl)pyridin-3-yl)benzamide] | 106.76% | 99.44% | 93.91% | 98.01% | 102.08% | 99.23% | 124.21% | 95.22% | 115.95% | 62.4% | 102% | 102% | 97.7% | 96.7% | 99.2% | 88.6% |
